Entries after “also recorded” stand apart in the source; their conditions may differ.
How the values were obtained:
[1] = tested on: VNO; test: Comparison of the change in receptor potential induced by two Estrene steroids (Example 23); format: in vivo, human; conditions: 60 picograms; a subject; Fig. 5
Experimental: 60 picograms of each steroid and of a propylene glycol control were administered to a subject as described in Example 21.

[2] = tested on: VNO; test: Skin temperature (ST) after VNO stimulation (Example 25); format: in vivo, human; conditions: 30 male subjects; p<0.01; Fig. 6G
Experimental: (§1) Cortical evoked activity was induced by VNO stimulation with vomeropherins, and olfactory stimulation with odorants delivered in 300 ms air pulses. It was recorded using standard electroencephalographic (EEG) electrodes placed at positions Cz-A1 and Tz-A1 of the international […] system; the ground electrode was placed on the mastoid process. Electrodermal activity (EDA) was recorded using standard 8 mm silver electrodes in contact with palmar skin of the medial and ring fingers respectively, through a conductive gel interface. Skin temperature (ST) was recorded by a small (1.0 mm) thermistor probe placed in the right ear lobe. Peripheral arterial pulse (PAP) was monitored with a plethysmograph attached to the tip of the index finger. Respiratory frequency (RF) was measured with an adjustable strain gauge placed around the lower thorax. All electrical signals were DC amplified, digitized (MP-100, Biopac Systems) and continuously monitored utilizing a computer. Statistical Analysis: EVGs or EOGS, peak-to-peak changes and frequency changes of other parameters were measured and statistically analyzed. The significance of the results was determined by either using paired t-tests or analysis of variance (ANOVA). […] Recordings of the EVG were performed on 30 men and 30 women (ages 20 to 45). Vomeropherins were diluted and applied as 1 second pulses to the VNO with […] intervals between pulses when questioned, the subjects were not able to "smell" or otherwise consciously detect any of the vomeropherins.

[3] = tested on: VNO; test: Electro-vomeronasogram (EVG) (Example 25); format: in vivo, human; conditions: male subjects (ages 20 to 38); 100 fmoles; 1 second pulses; p<0.01; Fig. 6A
Experimental: The following electrophysiological studies were performed in 60 clinically normal human volunteers of both sexes (30 male and 30 female) whose ages ranged from 20 to 45 years. No anesthetics were used, and female subjects were excluded if pregnant.
The stimulation and recording system consists of a "multifunctional miniprobe" described elsewhere (Monti-Bloch, L. and Grosser, B.l. (1991) "Effect of putative pheromones on the electrical activity of the human vomeronasal organ and olfactory epithelium," J. Steroid Biochem. Molec. Biol. 39:573-582.). The recording electrode is a 0.3 mm silver ball attached to a small (0.1 mm) silver wire insulated with Teflon© the surface of the electrode is first treated to produce a silver chloride interface, and is then covered with gelatin It is positioned within a small caliber Teflon© catheter (dia = […]) such that the tip of the electrode protrudes approximately 2 mm. The Teflon© catheter is 10 cm in length and constitutes the terminal extension for a multichannel delivery system which delivers a continuous air stream carrying discreet pulses of chemosensory stimuli. The air stream first passes into a small chamber and is bubbled through a solution containing either a vomeropherin or an olfactant in a diluent or the diluent alone. A solenoid is used to rapidly redirect the air stream from the chamber to a route which bypasses the chamber. This creates a discreet pulse of stimulant in the air stream. A second, outer Teflon® tube with a diameter of 2 mm surrounds the catheter-electrode assemblage, and its central end is connected to an aspirator that provides continuous suction of 3ml/s. This concentric arrangement of the outer suction tube allows the emitted chemosensory stimuli to be localized to an area we call a "minifield" (approx. dia = 1 mm), and it avoids diffusion of substances either to the area outside the intended stimulation site or into the respiratory system. The entire stimulating and recording assemblage may be positioned either on the neurosensory epithelium within the VNO, or on the surface of the olfactory or respiratory epithelium. Electro-vomeronasogram (EVG): Recordings are carried out in a quiet room with the subject supine; the multifunctional miniprobe is initially stabilized within the nasal cavity using a nasal retractor placed in the vestibule. Reference and ground electrodes consist of silver discs (8 mm), both of which are positioned on the glabella.
The entrance to the VNO, or vomeronasal pit, is identified by first dilating the nasal aperture and vestibule. A 6x magnifying binocular loupe with halogen illumination is then used to introduce the tip of the Teflon® catheter and recording electrode assemblage into the VNO opening where it is stabilized at an approximate depth of 1 mm within the vomeronasal passage. Optimal placement of the recording electrode is signaled after testing for an adequate depolarization in response to a test substance.
Electrical signals from the recording electrode are fed to a DC amplifier after which they are digitized, computer monitored, and stored. The peak-to-peak amplitude of the signals is measured, and the area under the depolarization wave is integrated, while continuously monitoring the signal both on the computer screen and on a digital oscilloscope. Artifacts produced by respiratory movements are deleted by training the subjects to practice mouth breathing with velopharyngeal closure. Chemosensory Stimulants: Olfactory test substances are cineole, and 1-carvone; vomeropherins are A, B, C, E and F. (Vomeropherins were supplied by Pherin Corporation, Menlo Park, California), Samples of vomeropherins In concentration of 25-800 fmoles are delivered in the continuous air stream for durations from 300 milliseconds to 1 second. Usually, intervals of 3 to 5 minutes separated each series of short test pulses. […]

[4] = tested on: VNO; test: Cortical evoked activity (EEG, alpha cortical activity) after VNO stimulation (Example 25); format: in vivo, human; conditions: males, 200 fmoles, Fig. 6E
Experimental: as §1
[…] […] Synchronization of the EEG was sustained for 1.5 to 2.7 minutes after application of a single pulse of active substance.

[5] = tested on: VNO; conditions: 2% lidocaine applied to the respiratory epithelium of the nasal septum; preliminary evidence, Monti-Bloch and Grosser 1991; cited from earlier work

Structure (SMILES) | change in receptor potential [1] | skin temperature (ST) [2] | EVG average response (mean) [3] [mV] | alpha cortical activity ([4]; air pulses 300 ms to 1 sec) | latency of increase in alpha cortical activity [4] [ms] | effect of local anesthetic on the EVG [5]
COc1ccc2c(c1)CC[C@@H]1[C@@H]2CC[C@]2(C)C=CC[C@@H]12 [D, 3-Methoxy-Estra-1,3,5(10),16-tetraene] | greater change in receptor potential than did 1,3,5(10),16-Estratetraen-3-yl acetate | significant temperature decrease | 15.1 | significantly increased alpha cortical activity; also recorded: strongest effect | 270 to 380 | 
CCN(CC)CC(=O)Nc1c(C)cccc1C [lidocaine] |  |  |  |  |  | neither blocks nor diminishes the EVG
